Laboratory results taken from patent US11286268B1, “EIF4E-inhibiting compounds and methods” (EFFECTOR THERAPEUTICS, INC., priority 2019, dated 2022).
Where two headings read alike, the source gives them in different places.

Target: recombinant eIF4E (Homo sapiens (Human), UniProt P06730)
Assay: Fluorescence polarization competition assay for eIF4E binding potency
Experimental: Compounds were screened for eIF4E binding potency using a fluorescence polarization competition assay. All binding reactions were performed in fluorescence polarization buffer (FPB) containing 20 mM Tris pH 7.5, 100 mM NaCl, 1 mM DTT, and 0.02% Tween-20. Final binding reactions contained 75 nM recombinant eIF4E (Beryllium, custom order), 20 nM EDA-m^7GDP-ATTO-550 (Jena Bioscience, NU-827-550) and varying concentrations of the inhibitory compound of interest. Final DMSO concentration in each reaction was 1%.
eIF4E protein was pre-incubated with EDA-m^7GDP-ATTO-550 in FPB at 2× concentrations for 5 minutes prior to the addition of compounds. Compounds (100×) were prepared using 3-fold serial dilutions in 100% DMSO, and subsequently diluted 1:50 in FPB to produce 2× stocks. 50 μl of 2× eIF4E/EDA-m^7GDP-ATTO-550 were transferred to the wells of a 96-well half-area black flat bottom polystyrene plate. 50 μl of 2× test compound were added, and binding reactions were allowed to equilibrate for 30 minutes at room temperature while protected from light. The fluorescent polarization signal was detected using a Victor 2 multi-label counter (Perkin Elmer) and the concentration necessary to achieve inhibition of eIF4E/EDA-m^7GDP-ATTO-550 binding by 50% (IC50) was calculated using data from an 8-point compound dilution series.
In Table 4A, IC50 values of less than 0.05 μM are labelled as “+++”, from 1 to 0.05 μM are labelled as “++”, and greater than 1 μM are labelled as “+”. ND=not determined.

[1] = fluorescence polarization competition, 75 nM recombinant eIF4E, 20 nM EDA-m7GDP-ATTO-550, IC50 class, read-out: elF4E FP
[2] = inhibition of eIF4E/EDA-m7GDP-ATTO-550 binding by 50%, Table 4B calculated values, read-out: IC50

Chain of recombinant eIF4E (P06730 whole entry): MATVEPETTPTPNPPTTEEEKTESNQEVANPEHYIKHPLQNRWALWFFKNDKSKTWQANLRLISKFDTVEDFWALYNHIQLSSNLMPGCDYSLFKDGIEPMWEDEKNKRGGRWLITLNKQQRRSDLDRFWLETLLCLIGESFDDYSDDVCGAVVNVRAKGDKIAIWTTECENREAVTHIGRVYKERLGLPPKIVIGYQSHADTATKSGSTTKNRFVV

Structure (SMILES) | IC50 [1] [nM] | IC50 [2] [nM]
CS(=O)(=O)c1cc(C(=O)O)cc(-c2cc(Cl)ccc2OCCn2cnc3cnc(C#N)cc3c2=O)c1 [compound 112] | > 1000 | > 3000
N#Cc1cc2c(=O)n(CCOc3ccc(Cl)cc3-c3ccc(OC(F)(F)F)c(C(=O)O)c3)cnc2cn1 [compound 113] | 50 to 1000 | 804
N#Cc1cc2c(=O)n(CCOc3ccc(Cl)cc3-c3cc(C(=O)O)c4cc[nH]c4n3)cnc2cn1 [compound 117] | > 1000 | > 3000
N#Cc1cc2c(=O)n(CCOc3ccc(Cl)cc3-c3cccc4c(C(=O)O)nccc34)cnc2cn1 [compound 118] | 50 to 1000 | 416
Cc1nc2cc(Cl)c(C(F)F)c(C#N)c2c(=O)n1CCOc1ccc(Cl)cc1-c1ccnc2c(C(=O)O)csc12 [compound 119] | < 50 | 19.9
Cc1nc2cc(C(F)(F)F)cc(C#N)c2c(=O)n1CC#Cc1ccc(Cl)cc1-c1ccnc2c(C(=O)O)csc12 [compound 120] | < 50 | 35.7
Cc1cc(-c2cc(Cl)ccc2OCCn2c(C)nc3cc(C(F)(F)F)cc(C#N)c3c2=O)c2scc(C(=O)O)c2n1 [compound 121] | < 50 | 37.5
Cc1nc2cc(C(F)(F)F)cc(C#N)c2c(=O)n1CCOc1ccc(Cl)cc1-c1ccc(F)c2c(C(=O)O)csc12 [compound 122] | < 50 | 24.4
Cc1sc2c(-c3cc(Cl)ccc3OCCn3c(C)nc4c(F)cc(C(F)F)c(C#N)c4c3=O)ccnc2c1C(=O)O [compound 123] | < 50 | 36.5
N#Cc1cc2c(=O)n(CCOc3ccc(O)cc3-c3cccc(C(=O)O)c3)cnc2cn1 [compound 125] | > 1000 | > 3000
N#Cc1cc2c(=O)n(CCOc3ccc(C(F)F)cc3-c3cccc(C(=O)O)c3)cnc2cn1 [compound 126] | > 1000 | 8360
C#Cc1c(C(=O)O)cccc1-c1cc(Cl)ccc1OCCn1cnc2cnc(C#N)cc2c1=O [compound 127] | 50 to 1000 | 77
N#Cc1c(C(F)(F)F)ccc2ncn(CCOc3ccc(Cl)cc3-c3cccc(C(=O)O)c3)c(=O)c12 [compound 133] | 50 to 1000 | 66.5
O=C(O)c1cccc(-c2cc(Cl)ccc2OCCn2cnc3cnc(-n4cccn4)cc3c2=O)c1 [compound 136] | 50 to 1000 | 199
CNC(=O)Cc1cc2c(=O)n(CCOc3ccc(Cl)cc3-c3cccc(C(=O)O)c3)cnc2cn1 [compound 137] | 50 to 1000 | 904
N#Cc1cc(C(F)F)cc2ncn(CCOc3ccc(Cl)cc3-c3cccc(C(=O)O)c3)c(=O)c12 [compound 139] | < 50 | 34.6
Cc1nc2cncc(C#N)c2c(=O)n1CCOc1ccc(Cl)cc1-c1ccnc2c(C(=O)O)csc12 [compound 140] | 50 to 1000 | 50
N#Cc1cccc2nc(C(F)F)n(CCOc3ccc(Cl)cc3-c3ccc(C(=O)O)c(C(=O)O)c3)c(=O)c12 [compound 148] | < 50 | 20.5
N#Cc1c(C(F)F)ccc2ncn(CCOc3ccc(Cl)cc3-c3ccnc(C(=O)O)c3)c(=O)c12 [compound 161] | 50 to 1000 | 
N#Cc1cc(C(F)(F)F)cc2ncn(CCOc3ccc(Cl)cc3-c3ccnc(C(=O)O)c3)c(=O)c12 [compound 162] | < 50 | 28.7
C#Cc1c(-c2cc(Cl)ccc2OCCn2c(C(F)F)nc3cccc(C#N)c3c2=O)ccnc1C(=O)O [compound 163] | 50 to 1000 | 95.5
N#Cc1cccc2nc(C(F)F)n(CCOc3ccc(Cl)cc3-c3ccnc(C(=O)O)c3)c(=O)c12 [compound 166] | < 50 | 35
Cc1nc2cc(F)cc(C#N)c2c(=O)n1CCOc1ccc(Cl)cc1-c1cccc(C(=O)O)c1 [compound 167] | 50 to 1000 | 101
Cc1nc2cc(C(F)(F)F)cc(C#N)c2c(=O)n1CCOc1ccc(Cl)cc1-c1cccc(C(=O)O)c1C#N [compound 168] | < 50 | 37.2

More lines, now with the values ahead:

IC50 [1] [nM] | IC50 [2] [nM] | Structure (SMILES)
> 1000 | 26900 | CC(C)(C#N)c1cc(C(=O)O)cc(-c2cc(Cl)ccc2OCCn2cnc3cnc(C#N)cc3c2=O)c1 [compound 110]
50 to 1000 | 434 | N#Cc1cc2c(=O)n(CCOc3ccc(Cl)cc3-c3ccc(OC(F)F)c(C(=O)O)c3)cnc2cn1 [compound 111]
50 to 1000 | 333 | COc1c(N)cc(-c2cc(Cl)ccc2OCCn2cnc3cnc(C#N)cc3c2=O)cc1C(=O)O [compound 114]
> 1000 | > 3000 | Cc1c(C(=O)O)ccnc1-c1cc(Cl)ccc1OCCn1cnc2cnc(C#N)cc2c1=O [compound 115]
> 1000 | > 3000 | Cc1cc(C(=O)O)c(C#N)c(-c2cc(Cl)ccc2OCCn2cnc3cnc(C#N)cc3c2=O)n1 [compound 116]
> 1000 | 9130 | COc1ccc(OCCn2cnc3cnc(C#N)cc3c2=O)c(-c2cccc(C(=O)O)c2)c1 [compound 124]
50 to 1000 | 970 | N#Cc1cc2c(=O)n(CCOc3ccc(Cl)cc3-c3cccc(-c4nn[nH]n4)c3)cnc2cn1 [compound 128]
> 1000 | 3100 | CC(COc1ccc(Cl)cc1-c1cccc(C(=O)O)c1)n1cnc2cnc(C#N)cc2c1=O (stereo not drawn) [compound 129]
> 1000 | 1420 | N#Cc1cc2c(=O)n(CC#Cc3ccc(Cl)cc3-c3cccc(C(=O)O)c3)cnc2cn1 [compound 130]
50 to 1000 | 600 | CC(=O)Nc1cc2c(=O)n(CCOc3ccc(Cl)cc3-c3cccc(C(=O)O)c3)cnc2cn1 [compound 131]
50 to 1000 | 624 | CNC(=O)c1cc2c(=O)n(CCOc3ccc(Cl)cc3-c3cccc(C(=O)O)c3)cnc2cn1 [compound 132]
50 to 1000 | 116 | Cc1nc2cnc(C#N)cc2c(=O)n1CCOc1ccc(Cl)cc1-c1ccnc(C(=O)O)c1 [compound 134]
50 to 1000 | 279 | Cc1cc2c(=O)n(CCOc3ccc(Cl)cc3-c3cccc(C(=O)O)c3)cnc2cn1 [compound 138]
< 50 | 44.2 | Cc1nc2ccc(Cl)c(C#N)c2c(=O)n1CCOc1ccc(Cl)cc1-c1cccc(C(=O)O)c1 [compound 141]
50 to 1000 | 152 | Cc1nc2c(C(F)(F)F)ccc(C#N)c2c(=O)n1CCOc1ccc(Cl)cc1-c1cccc(C(=O)O)c1 [compound 142]
< 50 | 16.7 | N#Cc1cccc2nc(C(F)F)n(CCOc3ccc(Cl)cc3-c3ccnc4c(C(=O)O)csc34)c(=O)c12 [compound 143]
50 to 1000 | 95.9 | Cc1nc2cc(C(F)(F)F)cc(C#N)c2c(=O)n1C/C=C/c1ccc(Cl)cc1-c1cccc(C(=O)O)c1 [compound 145]
50 to 1000 | 259 | Cc1nc2cc(C(F)(F)F)cc(C#N)c2c(=O)n1CCCc1ccc(Cl)cc1-c1cccc(C(=O)O)c1 [compound 146]
< 50 | 14.7 | Cc1nc2cncc(C#N)c2c(=O)n1CCOc1ccc(Cl)cc1-c1ccc(C(=O)O)c(C(=O)O)c1 [compound 147]
50 to 1000 | 110 | Cc1nc2cncc(C#N)c2c(=O)n1CC#Cc1ccc(Cl)cc1-c1ccc(C(=O)O)c(C(=O)O)c1 [compound 149]
50 to 1000 | 54 | Cc1nc2cc(C(F)F)cc(C#N)c2c(=O)n1CCOc1ccc(Cl)cc1-c1cccc(C(=O)O)c1 [compound 153]
50 to 1000 |  | Cc1nc2cc(C(F)(F)F)nc(C#N)c2c(=O)n1CCOc1ccc(Cl)cc1-c1cccc(C(=O)O)c1 [compound 154]
< 50 | 45.5 | C#Cc1c(C(=O)O)cccc1-c1cc(Cl)ccc1OCCn1c(C)nc2cncc(C#N)c2c1=O [compound 155]
< 50 | 4.2 | C#Cc1c(C(=O)O)cccc1-c1cc(Cl)ccc1OCCn1c(C)nc2cc(C(F)(F)F)cc(C#N)c2c1=O [compound 156]
< 50 | 48.3 | Cc1nc2cc(C(F)(F)F)cc(C#N)c2c(=O)n1CCOc1ccc(Cl)cc1-c1ccc(C(=O)O)c(C(=O)O)c1 [compound 158]
< 50 | 30.9 | C#Cc1c(C(=O)O)cccc1-c1cc(Cl)ccc1OCCn1cnc2cc(C(F)(F)F)cc(C#N)c2c1=O [compound 159]
< 50 | 8.83 | Cc1nc2ccc(C(F)F)c(C#N)c2c(=O)n1CCOc1ccc(Cl)cc1-c1ccnc2c(C(=O)O)csc12 [compound 160]
 | 16.4 | N#Cc1cc(C(F)(F)F)cc2ncn(CCOc3ccc(Cl)cc3-c3ccnc4c(C(=O)O)csc34)c(=O)c12 [compound 164]
50 to 1000 | 106 | C#Cc1c(C(=O)O)cccc1-c1cc(Cl)ccc1OCCn1c(C(F)F)nc2cccc(C#N)c2c1=O [compound 165]
50 to 1000 | 234 | C=Cc1c(C(=O)O)cccc1-c1cc(Cl)ccc1OCCn1c(C)nc2cc(C(F)(F)F)cc(C#N)c2c1=O [compound 169]
